Earlier results in patent US20100285114A1, “PHARMACEUTICAL COMPOSITIONS OF RHEIN OR DIACEREIN” (priority 2007, published 2010).
Where a name gives a salt, the structure may show the parent alone.

Legend:
[1] = in vivo

Row | soft stool effect expected due to inherent pharmacokinetic property (enterohepatic circulation) [1] | solubility (in water, alcohols, acetone, dichloromethane and chloroform) | solubility in water (disclosed in EP 243,968) | Compound
1 | 30-40% | practically insoluble | – | CC(=O)Oc1cccc2c1C(=O)c1c(OC(C)=O)cc(C(=O)O)cc1C2=O [diacerein, 4,5-bis (acetyloxy) 9,10-dihydro-4,5-dihydroxy-9,10-dioxo-2-anthracenecarboxylic acid]
2 | – | – | water-soluble | CC(=O)Oc1cccc2c1C(=O)c1c(OC(C)=O)cc(C(=O)O)cc1C2=O [potassium salt of diacerein]
